What is called AC50 is the concentration at which the activity in the assay is half-maximal.

The experiment has as its target Lysine-specific demethylase 4C (Homo sapiens) (UniProt Q9H3R0). Briefly: GASC-1 (JMJD2C) histone demethylase inhibitors, dose response, biochemical, DELFIA europium, cherry-picked samples (AID 488835).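 Also: signal is the H3K9me2 demethylation product detected by a dimethyl-specific antibody.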 To be noted: GST-JMJD2C(1-420), H3K9me3 demethylation.

Lysine-specific demethylase 4C (Homo sapiens), sequence (Q9H3R0 1-420 limits assumed): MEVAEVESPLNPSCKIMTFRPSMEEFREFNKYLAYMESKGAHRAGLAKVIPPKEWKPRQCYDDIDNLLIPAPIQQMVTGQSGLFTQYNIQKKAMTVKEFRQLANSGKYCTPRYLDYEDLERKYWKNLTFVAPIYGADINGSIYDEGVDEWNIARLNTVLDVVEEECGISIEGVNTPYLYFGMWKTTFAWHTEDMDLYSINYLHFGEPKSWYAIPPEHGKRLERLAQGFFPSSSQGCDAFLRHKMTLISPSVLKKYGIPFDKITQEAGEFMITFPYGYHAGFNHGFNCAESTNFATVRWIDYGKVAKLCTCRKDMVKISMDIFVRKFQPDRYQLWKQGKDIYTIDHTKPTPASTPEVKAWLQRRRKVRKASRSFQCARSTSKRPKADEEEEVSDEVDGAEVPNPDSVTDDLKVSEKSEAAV

For the molecule `C#CCOCCOCCOCCNc1nc(N2CCN(C(=O)CCCCCCCCCCNC(=O)[C@H]([C@@H](C)CC)n3cc(CCCCN=C(N)N)nn3)CC2)nc(N2CCN(C(=O)CCCCCCCCCCNC(=O)[C@H](CCCCN)n3cc(C)nn3)CC2)n1`, the AC50 was 6.07 µM.
